# Values quoted from earlier work as cited in patent US20260191920A1, “METHODS AND COMPOSITIONS FOR TREATING AND PREVENTING CENTRAL NERVOUS SYSTEM DISORDERS AND OTHER CONDITIONS CAUSED BY GUT MICROBIAL DYSBIOSIS” (HOLOBIOME, INC., priority 2019, published 2026).
# What was measured:
# [1] = by day 6, mice pretreated with oral antibiotics, regardless of diet; cited from earlier work
# [2] = system: (Q+)tRNA^His and (Q+)tRNA^Asn in the liver; conditions: queuine-deficient mice, intraperitoneal, 325 micrograms per injection, 24 h apart; cited from earlier work
# germ-free mice = conditions: chemically synthesized queuine at 0.1 μM in the diet; cited from earlier work
Compound,fraction of ingested dose eliminated [1],(Q+)tRNA^His and (Q+)tRNA^Asn percentages in the liver [2],effect on adverse health effects and death of tyrosine- and queuine-deprived germ-free mice (germ-free mice)
[CH3][Hg][Cl] [methylmercury],0-6%,–,–
"Nc1nc2[nH]cc(CN[C@H]3C=C[C@H](O)[C@@H]3O)c2c(=O)[nH]1 [queuine, 2-amino-5-((((1S,4S,5R)-4,5-dihydroxy-2-cyclopenten-1-yl)amino)methyl)-1,7-dihydro-4H-pyrrolo (2,3-d) pyrimidin-4-one]",–,corresponding increase,prevented emergence of these deleterious effects
